Assay results from patent publication US20090028888A1, “Cancer Antigen Mage-A9 and Uses Thereof” (priority 2005, published 2009).

Columns and labels:
CT genes = conditions: cited from earlier work; for expression of CT genes, combination with 5-AZA-DC: HDAC inhibitor combined with 5-AZA-DC
[1] = system: MAGE-A9 gene expression in bladder cancer cell lines; test: RT-PCR analysis of MAGE-A9 gene expression induction in bladder cancer cell lines; conditions: MGH-U3, 5637 and VMCUB-3; 1 μM 5-AZA-DC alone, 96 hours

SMILES | induction of the expression of several CT genes (CT genes; single agent) | MAGE-A9 mRNA induction [1] | expression of CT genes, combination with 5-AZA-DC (CT genes)
Nc1ncn([C@H]2C[C@H](O)[C@@H](CO)O2)c(=O)n1 [5-AZA-DC, 5-aza-2′-deoxycytidine] | potent inducers | strongly induced | –
C/C=C1\NC(=O)[C@H]2CSSCC/C=C/[C@H](CC(=O)N[C@H](C(C)C)C(=O)N2)OC(=O)[C@H](C(C)C)NC1=O [depsipetide] | – | – | stronger expression
CC(/C=C/C(=O)NO)=C\[C@@H](C)C(=O)c1ccc(N(C)C)cc1 [trichostatin A] | – | – | stronger expression
